Experimental data from patent publication US5534495A, “Treatment of non-HIV neuropathic pain syndromes” (Advanced Peptides and Biotechnology Sciences, priority 1995, dated 1996).

Tests used:
[1] = tested on: dissociated hippocampal and/or cortical neurons; test: Neuronal survival assay in vitro (5-day exposure); format: cell-based, rat
Procedure: (§1) The neuroprotective and neurotropic actions of the herein defined peptides were determined by their effects upon fetal rodent neuronal cultures. […] The dissociated cells were be plated at low density (50,000 cells/35-mm dish) upon confluent layers of astrocytes. The astrocyte feeder layers were prepared from the hippocampi and/or cortices of 2-day-old rat pups. Following treatment with 0,125% trypsin for 15 min, the tissue was triturated and plated at 2.5×10^5 cells into 35-mm tissue culture dishes coated with Vintrogen (Collagen, Palo Alto) and poly-L-lysine (M1 30-70K 10^-5 M borate, pH 8.4, Sigma). The resulting feeder layers were grown in Eagle's minimal essential medium (MEM, formula 82-0234, Gibco) with 10% fetal bovine serum until confluent (12-14 days); feeder layers prepared in this way were devoid of neurons and consisted predominantly of flat cells that were stained by antibodies to glia fibrillary acidic protein. When hippocampal and/or cortical neurons were added to the confluent feeder cultures, the medium was changed to 94% MEM, 5% horse serum (Gibco) and an added nutrient supplement containing insulin, transferrin, putrescine, selenium, corticosterone, progesterone and triiodothyronine. The resulting mixed neuron/glia cultures are treated one day after plating with 5'-fluoro-2'-deoxyuridine (15 μg/ml plus uridine, 35Mg/ml) to suppress the overgrowth of background cells. The neuronal cultures were allowed to grow for one week prior to the beginning of the experimental period and the medium was changed prior to adding peptides or controls.
The test period of exposure to peptides was five days long, a period in which cell survivability can be accurately quantitated. […] Neurons were counted in 100 fields at predetermined stage coordinates. Cultures were coded and counted in a blinded fashion without knowledge of sample treatment. The total area counted was 50 mm^2. […] The maximum effect was detected at 0.1 nM, with approximately a 25% increase in cell survival compared to vehicle (Control) treated cultures.

[2] = tested on: hippocampal neuronal cells; test: Twenty one day survival of hippocampal neuronal cell cultures; format: cell-based, rat; details: 0.1 nM
Procedure: as §1, with “The resulting mixed neuron/glia cultures are treated one day after plating with 5'-fluoro-2'-deoxyuridine (15 μg/ml plus uridine, 35Mg/ml) to suppress the overgrowth of background cells. The neuronal cultures were allowed to grow for one week prior to the beginning of the experimental period and the medium was changed prior to adding peptides or controls.” left out

For C[C@@H](N)C(=O)N[C@@H](CO)C(=O)N[C@H](C(=O)N[C@H](C(=O)N[C@H](C(=O)N[C@@H](CC(N)=O)C(=O)N[C@@H](Cc1ccc(O)cc1)C(=O)N[C@H](C(N)=O)[C@@H](C)O)[C@@H](C)O)[C@@H](C)O)[C@@H](C)O [DAPTA], the “effect on neuronal survival (neuronal cell count as percentage of Control)” value ([1]; 7-day-old neuronal cultures, five days exposure, vs vehicle control, FIG. 1) was “caused an increase in neuronal survival”, the “increase in cell survival compared to vehicle (Control) treated cultures” value ([1]; at 0.1 nM (maximum effect), five days) was about 25% and the “concentration of maximum effect on neuronal survival” value ([1]; five days exposure, FIG. 1) was 0.1 nM. The “increase in cell survival compared to vehicle treated cultures” value ([2]; after twenty one days, FIG. 2) was 4 fold and the “cell survival rate over the test period” value ([2]; at all times during the twenty one day test period, vs vehicle) was “enhanced”.
